From patent US20080081781A1, “Methods and compositions for the treatment of metabolic syndrome” (priority 2004, published 2008)

Experiments:
in vivo = conditions: rabbit, 50 mg/kg
Method: 50 mg/kg of berberine was administered through stomach infusion to six rabbits. Serum samples were taken at various points after administration and RP-HPLC was used to measure the drug concentration.

ERK = ERK activation in HepG2 or Bel-7402 cells (western blotting, phosphorylated ERK); format: cell-based, human; conditions: both hepatoma cell lines HepG2 and Bel-7402; 0.25-24 hours
Method: HepG2 or Bel-7402 cells were treated with berberine for 0.25, 0.5, 0.75, 1, 2, 8, and 24 hours respectively and tested for levels of activated ERK by western blotting using antibodies that only recognize the activated (phosphorylated) ERK. […] The activation of berberine is also dose dependent (FIG. 14C).

rats = test: Long term toxicity in rats; format: in vivo, rat; conditions: 300 mg/kg orally for 182 days
Method: For long term toxicity determination, rats were administered 300 mg/kg of berberine orally for 182 days.

InsR mRNA [1] = test: InsR mRNA expression in HepG2 cells (real time RT-PCR, slot blot); format: cell-based, human; conditions: HepG2, 2.5 μg/ml for 8 hours
Method: Cells from the human hepatoma cell line HepG2 were incubated with 0, 1, 2.5, 5, 10 or 15 μg/ml of berberine respectively for eight hours. Total cellular RNA was isolated using the Ultraspec RNA lysis solution (Biotecxs Laboratory, Houston, Tex.) following the vender's protocols. […] of the RNA sample was transferred to nitrocellulose membrane via a slot-blot apparatus (Schleicher & Schuell, Keene, N.H.). The blots were fixed by baking at 80° C. for 2 h, followed by hybridization to a 0.89-kb long, 32P-labelled human InsR cDNA probe. The same membranes were then stripped and re-hybridized to a human ACTB probe as internal control. Quantitative real time RT-PCR assays were also done. For the RT-PCR assay, total cellular RNA was reverse-transcribed into cDNA using the Reverse Transcription System (Promega, Madison, Wis.). Quantitative real-time PCR were performed with these cDNA using the Applied Biosystems 7500 Real-Time PCR System and TaqMan® Universal PCR Master Mix (Applied Biosystems, Foster City, Calif.). […] 2.5 μl of cDNA sample, 12.5 μl of Universal PCR Master Mix, and 1.25 μl of TaqMan® Gene Expression Assay reagent were mixed in a 25 μl reaction system, and the comparative CT method was used in relative gene quantification using the TaqMan® SDS analysis software. […]

InsR mRNA [2] = test: Rat liver InsR and LDLR mRNA (quantitative real time RT-PCR); format: in vivo; conditions: rats, 14 days
Method: The livers were dissected and stored in liquid nitrogen for RNA extraction, real-time RT-PCR and PKC activity assay. Total blood samples were also collected to assay fasting blood glucose and serum insulin levels. The insulin levels were analyzed using radio-immunoassay (Linco Research, St Charles, Mo.). The insulin sensitivity indexes (ISI) were calculated according to the formula: 10^4/(fasting serum insulin X fasting blood glucose) (Hanson, Am. J. Epidemiol. 15 1(2), 190-198 (2000)). The insulin level and ISI of normal rats were also determined for comparison. […] It also elevated the fasting blood glucose from 7 to 12.8 mmol/L (P<0.001).
Liver mRNA extracts were used for quantitative real time RT-PCR assay. Total cellular RNA was reverse-transcribed into cDNA using the Reverse Transcription System (Promega, Madison, Wis.). Quantitative real-time PCR were performed with these cDNA using the Applied Biosystems 7500 Real-Time PCR System and TaqMan® Universal PCR Master Mix (Applied Biosystems, Foster City, Calif.). […] 2.5 μl of cDNA sample, 12.5 μl of Universal PCR Master Mix, and 1.25 μl of TaqMan® Gene Expression Assay reagent were mixed in a 25 μl reaction system, and the comparative CT method was used in relative gene quantification using the TaqMan® SDS analysis software. […]

InsR mRNA [3] = test: InsR mRNA stability after actinomycin D in HepG2 cells (slot blot); format: cell-based, human; conditions: HepG2, […] 8 h then actinomycin D; untreated cells 4.4 hr
Method: HepG2 cells were treated or untreated with 7.5 μg/ml of berberine for 8 h. Then, 5 μg/ml of actinomycin D was added to block the transcription. Total cellular RNA was harvested at 0, 2, 4, 6, or 8 hours after actinomycin D treatment, and slot-blotted to nitrocellulose membranes as described above. The membranes were respectively hybridized with InsR and ACTB specific probes as described above, and bands were quantitated through densitometry. The InsR mRNA levels were normalized to ACTB, and their remaining percentages are plotted against time and the decaying rate or half-life of InsR mRNA was calculated (FIG. 21B).

SREBP2 = test: Precursor and mature forms of SREBP2 in HepG2 cells (Western blot); format: cell-based, human; conditions: 8 hours
Description: Total cell lysates from untreated cells or cells treated with either berberine or GW707 were then harvested and analyzed by Western blot.

COc1ccc2cc3[n+](cc2c1OC)CCc1cc2c(cc1-3)OCO2 [berberine]
peak time Tpeak (in vivo): 0.63 ± 0.25 h | AUC (in vivo; po): 492 ± 296 ng·h/mL | Cmax (in vivo; po): 92.7 ± 50.9 ng/mL | half-life (in vivo; po): 3.11 ± 0.58 h | ERK activation (phosphorylated ERK) (ERK): rapidly activated ERK | long term toxicity: blood tests, blood biochemistry, urine analysis, histopathology (rats): No abnormalities were found | increase of InsR mRNA (InsR mRNA [1]): 40% | increase in InsR mRNA in the livers (InsR mRNA [2]; 75 mg/kg/day): 1.8 fold | increase in InsR mRNA in the livers (InsR mRNA [2]; 150 mg/kg/day): 2.3 fold | turnover rate (half-life) of InsR transcript (InsR mRNA [3]): 4.7 h | amount of the mature form of SREB-2 (SREBP2): no effect
